Assay results reported in US10137210B2, “Thioflavin derivatives for use in antemortem diagnosis of Alzheimer's disease and in vivo imaging and prevention of amyloid deposition” (UNIVERSITY OF PITTSBURGH—OF THE COMMONWEALTH SYSTEM OF …, priority 2000, dated 2018).
Entries after “also recorded” stand apart in the source; their conditions may differ. Like-named read-outs stand apart in the source and are kept apart here.

What was measured:
[1] = In vivo brain uptake and retention in mice; design: species or system mouse; conditions: for Mouse Brain Uptake @ 2 min / Mouse Brain Uptake @ 30 min: 11C-labeled compound; for 2 min (% ID/g): brain uptake at 2 min; for 2 min (% ID/g) / 30 min (% ID/g): Table 1 lower part; for 30 min (% ID/g): brain uptake at 30 min
From the text: In Table 1 below are five different ^11C-labeled BTA derivatives where their in vitro binding properties, log P values, and in vivo brain uptake and retention properties in mice have been determined.

[2] = Partitioning between octanol and phosphate-buffered saline (logP)
Aβ(1-40) fibrils = Aβ(1-40) fibrils (Homo sapiens (Human), UniProt P05067); test: [N-methyl-11C]BTA-1 binding assay with Aβ(1-40) fibrils
[3] = tested on: plaques and tangles in post-mortem AD brain; test: Preliminary tissue staining of post-mortem AD brain with ThT and derivatives; assay type: binding, human; conditions: for staining of plaques and tangles in AD brain: post-mortem AD brain, fluorescence; for staining detectable at low concentration of staining solution: staining solutions containing only 10 nM of the BTA compound
From the text: Thus, in the development of these compounds, tissue staining has served the dual purpose of assessing specificity of staining in AD brain tissue as well as assessing binding affinity by screening staining solutions over a range of concentrations similar to that employed in the binding assays.

[4] = tested on: Aβ and tau deposits in brain homogenates; test: [3H]BTA-1 binding to brain homogenates (AD brain and Braak stage II control brain); design: species or system human
From the text: This control brain had frequent numbers of NFT in the entorhinal cortex (FIG. 5A), but no neuritic or diffuse plaques in any area of the brain (FIG. 11C). The NFT numbers in the EC of Cntl 04 were similar to the numbers found in many AD cases (FIG. 11B).

[5] = tested on: amyloid deposits in postmortem AD brain; test: Staining of postmortem AD brain tissue sections with unlabeled BTA-1; assay type: binding, human
[6] = In vivo PET brain imaging in baboons; conditions: normal baboon brain, 5-15 min post injection, 3 mCi i.v.
Experimental: Brain imaging studies were conducted following the intravenous injection of 3-5 mCi of radiotracer. Typical attenuation- and decay-corrected time-activity curves for a frontal cortex region of interest for each of the three compounds are shown in FIG. 6. It is noted that the absolute brain uptake of these 3 compounds in baboons is very similar to that in mice (i.e., about 0.47 to 0.39%ID/g*kg). […] The rank order of maximum brain uptake and clearance rate of the three compounds were also the same in mice and baboons. […] Typical amounts of unmetabolized injectate in plasma for all three compounds were about: 90% at 2 minutes; 35% at 30 minutes; and 20% at 60 minutes.
The emission files collected 5-15 min post injection were summed to provide the images. Brain regions include: Ctx (cortex); Thl (thalamus); Occ (occipital cortex); and Cer (cerebellum).

[7] = target: Aβ amyloid plaques and cerebrovascular amyloid (Homo sapiens (Human), UniProt P05067); test: In vivo labeling of amyloid deposits in PS1/APP transgenic mice, multiphoton microscopy; design: species or system mouse; conditions: 10 mg/kg ip, imaged 24 hours later, living PS1/APP mice
From the text: Twenty-four hours later, multiphoton fluorescence microscopy was employed to obtain high resolution images in the brains of living mice using a cranial window technique.

[8] = target: amyloid deposits in PS1/APP mouse brain (Homo sapiens (Human), UniProt P05067); test: Staining of transgenic PS1/APP mouse brain sections with unlabeled BTA-1; assay type: binding
From the text: The PS1/APP mouse model combines two human gene mutations known to cause Alzheimer's disease in a doubly transgenic mouse which deposits Aβ fibrils in amyloid plaques in the brain beginning as early as 3 months of age. […] NFT have not been observed in transgenic mouse models of amyloid deposition.

synthetic Aβ(1-40) = synthetic Aβ(1-40) (Homo sapiens (Human), UniProt P05067); test: Competitive binding with [3H]CG and synthetic Aβ(1-40)
[9] = Table 1, upper part, read-out: Ki (nM) to Aβ fibrils
[10] = Table 1, lower part, read-out: Ki
[11] = competition for Aβ sites, FIG. 5 right panel, read-out: Ki

Aβ(1-40) fibrils, sequence (P05067 672-711): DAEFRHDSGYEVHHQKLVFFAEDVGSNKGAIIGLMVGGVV
synthetic Aβ(1-40), sequence (P05067 672-711): as above
amyloid deposits in PS1/APP mouse brain, sequence (P05067 672-713): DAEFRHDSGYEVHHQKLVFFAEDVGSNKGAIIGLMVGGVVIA
Aβ amyloid plaques and cerebrovascular amyloid, sequence (P05067 672-713): as above

Question: What does the source list for Cc1ccc2nc(-c3ccc(N[11CH3])cc3)sc2c1?
Answer: Mouse Brain Uptake @ 2 min [1]: 0.32 ± 0.07 % ID/g * kg; Mouse Brain Uptake @ 30 min [1]: 0.17 ± 0.05 % ID/g * kg; logP [2]: 3.3

Question: With Cc1ccc2nc(-c3ccc(N(C)[11CH3])cc3)sc2c1 as the compound, how does the “Mouse Brain Uptake @ 2 min” value [1] read?
Answer: 0.15 ± 0.06 % ID/g * kg

Question: And the “Mouse Brain Uptake @ 30 min” value [1]?
Answer: 0.16 ± 0.02 % ID/g * kg

Question: And the “Ratio of 2 min/30 min Uptake Values” ([1]; mouse brain)?
Answer: 0.9

Question: And the logP (physchem)?
Answer: 3.9

Question: Which results are given for COc1ccc2nc(-c3ccc(N[11CH3])cc3)sc2c1?
Answer: Mouse Brain Uptake @ 2 min [1]: 0.43 ± 0.11 % ID/g * kg; Mouse Brain Uptake @ 30 min [1]: 0.094 ± 0.038 % ID/g * kg; Ratio of 2 min/30 min Uptake Values ([1]; mouse brain): 4.6; logP (physchem): 2.7; Ki (Aβ(1-40) fibrils; [9]): 5.7 nM

Question: What does the source list for COc1ccc2nc(-c3ccc(N(C)[11CH3])cc3)sc2c1?
Answer: Mouse Brain Uptake @ 2 min [1]: 0.32 ± 0.09 % ID/g * kg; Mouse Brain Uptake @ 30 min [1]: 0.42 ± 0.10 % ID/g * kg; Ratio of 2 min/30 min Uptake Values ([1]; mouse brain): 0.8; logP (physchem): 3.3; Ki (Aβ(1-40) fibrils; [9]): 2.3 nM

Question: For [11CH3]Nc1ccc(-c2nc3ccccc3s2)cc1, which “Mouse Brain Uptake @ 2 min” value [1] is on record?
Answer: 0.44 ± 0.14 % ID/g * kg

Question: And the “Mouse Brain Uptake @ 30 min” value [1]?
Answer: 0.057 ± 0.010 % ID/g * kg

Question: And the logP (physchem)?
Answer: 2.7

Question: Which “2:30 min ratio” value ([1]; Table 1, lower part) does the source give for Nc1ccc(-c2nc3ccccc3s2)cc1[125I] here?
Answer: 2.7

Question: And the “2 min (% ID/g)” value [1]?
Answer: 9.08 % ID/g

Question: What about the “30 min (% ID/g)” value [1] of the same compound?
Answer: 3.4 % ID/g

Question: And the logP (physchem)?
Answer: 3.17

Question: And the Ki (Aβ(1-40) fibrils; [10])?
Answer: 8.32 nM

Question: Which “2 min (% ID/g)” value [1] does the source give for Nc1ccc(-c2nc3ccc(O)cc3s2)cc1[125I] here?
Answer: 5.64 % ID/g

Question: And the “30 min (% ID/g)” value [1]?
Answer: 0.36 % ID/g

Question: And the logP (physchem)?
Answer: 1.65

Question: And the Ki (Aβ(1-40) fibrils; [10])?
Answer: 11.1 nM

Question: Which “staining of plaques and tangles in AD brain” value (shortened to “staining … in AD brain”) [3] does the source give for Cc1ccc2nc(-c3ccc(N)cc3)sc2c1 [6-Me-BTA-0, 2-(4′-aminophenyl)-6-methyl-benzothiazole] here?
Answer: stain plaques and tangles

Question: And the “staining detectable at low concentration of staining solution” value [3]?
Answer: could still be detected

Question: For CNc1ccc(-c2nc3ccc(C)cc3s2)cc1 [6-Me-BTA-1], which “staining detectable at low concentration of staining solution” value [3] is on record?
Answer: could still be detected

Question: For Cc1ccc2nc(-c3ccc(N(C)C)cc3)sc2c1 [6-Me-BTA-2, 2-(4′-dimethylaminophenyl)-6-methyl-benzothiazole], which “staining … in AD brain” value [3] is on record?
Answer: stain plaques and tangles

Question: For COc1ccc2nc(-c3ccc(N)cc3)sc2c1 [6-MeO-BTA-0, 6-Methoxy-2-(4-aminophenyl)benzothiazole], which brain clearance ([1]; mouse brain) is on record?
Answer: poor brain clearance

Question: With Nc1ccc(-c2nc3ccccc3s2)cc1 [BTA-0, 2-(4-Aminophenyl)benzothiazole] as the compound, how does the Ki (Aβ(1-40) fibrils; [11]) read?
Answer: 100 ± 16 nM

Question: With CNc1ccc(-c2nc3ccccc3s2)cc1 [BTA-1, 2-(4-Methylaminophenyl)benzothiazole] as the compound, how does the “binding in cerebellum and entorhinal cortex” value ([4]; Braak VI AD brain) read?
Answer: low binding

Question: And the “binding in frontal gray versus cerebellum and entorhinal cortex” value ([4]; Braak VI AD brain)?
Answer: over ten-fold higher levels

Question: What about the “binding in NFT-rich entorhinal cortex versus cerebellum and frontal gray” value ([4]; Braak stage II control brain (Cntl 04)) of the same compound?
Answer: no greater than

Question: And the “staining of neurofibrillary tangles (NFT)” value ([5]; AD brain, FIG. 8, left)?
Answer: more faintly stained

Question: And the “staining of amyloid plaques” value ([5]; postmortem AD brain tissue)?
Answer: clearly visible

Question: What about the “distribution of radioactivity in brain (PET)” value [6] of the same compound?
Answer: uniform distribution of radioactivity throughout the brain

Question: And the specific binding (Aβ(1-40) fibrils; 200 nM Aβ(1-40) fibrils)?
Answer: ~70%

Question: And the “in vivo labeling of plaques and cerebrovascular amyloid” value [7]?
Answer: plaques and cerebrovascular amyloid are clearly distinguishable

Question: What about the “staining of amyloid plaques” value ([8]; 8 month old PS1/APP mouse brain tissue) of the same compound?
Answer: clearly visible

Question: And the “staining of cerebrovascular amyloid” value ([8]; FIG. 8, right)?
Answer: brightly stained

Question: With CN(C)c1ccc(-c2nc3ccccc3s2)cc1 [BTA-2, 2-(4-dimethylaminophenyl)benzothiazole] as the compound, how does the Ki (Aβ(1-40) fibrils; [11]) read?
Answer: 3 ± 0.8 nM

Question: For c1ccc(-c2nc3ccccc3s2)cc1 [BTP, 2-phenylbenzothiazole, reference compound], which “staining … in AD brain” value [3] is on record?
Answer: does not appear to stain plaques

Question: With Cc1ccc2c(c1)sc(-c1ccc(N(C)C)cc1)[n+]2C.[Cl-] [ThT, Thioflavin T, reference compound] as the compound, how does the “competition with [3H]CG for binding sites on Aβ(1-40)” value (synthetic Aβ(1-40)) read?
Answer: lack of competition; also recorded: did not

Question: And the “log of the partition coefficient, logPoct” value ([2]; octanol / phosphate-buffered saline)?
Answer: 0.57

Question: What about the “staining … in AD brain” value [3] of the same compound?
Answer: weakly stains plaques

Question: For Thioflavin S [ThS], which “competition with [3H]CG for binding sites on Aβ(1-40)” value (synthetic Aβ(1-40)) is on record?
Answer: competed
